# Results: US10947201B2, “Certain chemical entities, compositions, and methods” (NEUPHARMA, INC., priority 2015, dated 2021)
# Key:
# Type in all cases: biochemical
# Conditions in all cases: for inhibition at 0.1 µM: compound at 100 nM, [ATP] = Km
# EGFR (ErbB1) = target: T1, EGFR (ErbB1) (Homo sapiens, UniProt P00533); experiment: Z'-LYTE kinase inhibition assay (Invitrogen), EGFR
# T1 construct: purchased Invitrogen
# Description: (§1) Inhibitory activities of compounds against BTK, EGFR and EGFR mutants (EGFR L858R/T790M) were measured by Invitrogen using Z′-LYTE® Method as briefly described in the following.
# (§2) Test Compounds are screened in 1% DMSO (final) in the well. For 10 point titrations, 3-fold serial dilutions are conducted from the starting concentration. All ATP Solutions are diluted to a 4× working concentration in Kinase Buffer (50 mM HEPES pH 7.5, 0.01% BRIJ-35, 10 mM MgCl2, 1 mM EGTA). Peptide/Kinase Mixtures are diluted to a 2× working concentration in the appropriate Kinase Buffers as described below.
# (i) Peptide/Kinase Mixtures for measurement of EGFR (ErbB1):
# The 2×EGFR (ErbB1)/Tyr 04 mixture is prepared in 50 mM HEPES pH 7.5, 0.01% BRIJ-35, 10 mM MgCl2, 4 mM MnCl2, 1 mM EGTA, 2 mMDTT. The final 10 μL Kinase Reaction consists of 1.1-5.25 ng EGFR (ErbB1) and 2 μM Tyr 04 in 50 mM HEPES pH 7.5, 0.01% BRIJ-35, 10 mM MgCl2, 2 mM MnCl2, 1 mM EGTA, 1 mM DTT. After the 1 hour Kinase Reaction incubation, 5 μL of a 1:64 dilution of DevelopmentReagent B is added.
# (§3) Reaction starts by 30-second shaking of mixture consisting of 2.5 μL 4× test compound, 5 μL 2× kinase reaction mixture and 2.5 μL 4×ATP Solution on Bar-coded Corning, low volume NBS, black 384-well plate (Corning Cat. #3676). Then the mixture is incubated for 60-minute at room temperature for the kinase reaction, followed by addition of 5 μL of a 1:1024 dilution of development reagent A and 30-second plate shake. The mixture is then incubated for another 60-minute at room temperature for development reaction. Finally fluorescence is read by plate reader. […] The scale utilized in Tables 2 and 3 is as follows: ++ more than 50% inhibition and + less than 50% inhibition.
# (§4) To determine IC50 of a compound against EGFR or EGFR mutants, a series of concentrations of the compound were tested for the inhibition. IC50 was calculated by plotting the concentration of compound vs the percentage of inhibition in treated wells using GraphPad Prism 5. […] The scale utilized in Table 4 is as follows: ++ less than 100 nM and + greater than 100 nM.
# EGFR (ErbB1) T790M L858R = target: T2, EGFR (ErbB1) T790M L858R (Homo sapiens, UniProt P00533, L858R/T790M); experiment: Z'-LYTE kinase inhibition assay (Invitrogen), EGFR L858R/T790M
# T2 construct: purchased Invitrogen
# Description: as §1, §2
# (iv) Peptide/Kinase Mixtures for measurement of EGFR (ErbB1) T790M L858R:
# The 2×EGFR (ErbB1) T790M L858R/Tyr 04 mixture is prepared in 50 mM HEPES pH 6.5, 0.01% BRIJ-35, 10 mM MgCl2, 1 mM EGTA, 0.02% NaN3. The final 10 μL Kinase Reaction consists of 0.38-4.22 ng EGFR (ErbB1) T790M L858R and 2 μM Tyr 04 in 50 mM HEPES pH 7.0, 0.01% BRIJ-35, 10 mM MgCl2, 1 mM EGTA, 0.01% NaN3. After the 1 hour Kinase Reaction incubation, 5 μL of a 1:64 dilution of Development Reagent B is added.
# as §3, §4
# BTK = target: T3, BTK (Homo sapiens, UniProt Q06187); experiment: Z'-LYTE kinase inhibition assay (Invitrogen), BTK
# T3 construct: purchased Invitrogen
# Description: as §1, §2
# (v) Peptide/Kinase Mixtures for measurement of BTK:
# The 2×BTK/Tyr 01 mixture is prepared in 50 mM HEPES pH 7.5, 0.01% BRIJ-35, 10 mM MgCl2, 1 mM EGTA. The final 10 μL Kinase Reaction consists of 1.04-10.4 ng BTK and 2 μM Tyr 01 in 50 mM HEPES pH 7.5, 0.01% BRIJ-35, 10 mM MgCl2, 1 mM EGTA. After the 1 hour Kinase Reaction incubation, 5 μL of a 1:256 dilution of Development Reagent B is added.
# as §3, §4
# T2 sequence (P00533 25-1210 T790M/L858R): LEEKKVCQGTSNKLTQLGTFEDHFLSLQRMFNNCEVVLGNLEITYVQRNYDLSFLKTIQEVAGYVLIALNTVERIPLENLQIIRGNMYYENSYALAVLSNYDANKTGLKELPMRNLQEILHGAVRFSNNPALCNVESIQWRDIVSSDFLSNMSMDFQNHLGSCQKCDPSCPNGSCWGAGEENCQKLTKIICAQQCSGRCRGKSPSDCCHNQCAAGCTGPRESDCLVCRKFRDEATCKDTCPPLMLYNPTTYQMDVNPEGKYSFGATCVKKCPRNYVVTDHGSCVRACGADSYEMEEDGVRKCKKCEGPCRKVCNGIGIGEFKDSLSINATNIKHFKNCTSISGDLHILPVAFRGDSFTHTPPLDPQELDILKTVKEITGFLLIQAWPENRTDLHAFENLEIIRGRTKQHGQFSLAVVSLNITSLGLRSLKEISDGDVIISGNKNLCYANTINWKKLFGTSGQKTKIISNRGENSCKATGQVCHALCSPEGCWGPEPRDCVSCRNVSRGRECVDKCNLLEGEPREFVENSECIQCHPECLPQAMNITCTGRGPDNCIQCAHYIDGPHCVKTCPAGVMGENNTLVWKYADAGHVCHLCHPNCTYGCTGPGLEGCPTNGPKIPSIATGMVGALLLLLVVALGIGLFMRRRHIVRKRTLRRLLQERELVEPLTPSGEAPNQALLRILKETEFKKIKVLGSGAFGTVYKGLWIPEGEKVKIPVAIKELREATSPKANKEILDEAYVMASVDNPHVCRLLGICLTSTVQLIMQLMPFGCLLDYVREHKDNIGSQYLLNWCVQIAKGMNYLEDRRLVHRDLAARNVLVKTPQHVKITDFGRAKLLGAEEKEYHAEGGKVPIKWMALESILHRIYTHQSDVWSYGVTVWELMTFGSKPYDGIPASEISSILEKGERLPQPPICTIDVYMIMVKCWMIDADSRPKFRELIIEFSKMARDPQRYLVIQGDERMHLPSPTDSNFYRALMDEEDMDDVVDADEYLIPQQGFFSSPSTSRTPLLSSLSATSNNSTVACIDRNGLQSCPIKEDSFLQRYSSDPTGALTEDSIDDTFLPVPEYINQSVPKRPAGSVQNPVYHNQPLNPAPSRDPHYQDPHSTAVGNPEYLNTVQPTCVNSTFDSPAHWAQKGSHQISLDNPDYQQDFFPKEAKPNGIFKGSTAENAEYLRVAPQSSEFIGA
# T3 sequence (Q06187 whole entry): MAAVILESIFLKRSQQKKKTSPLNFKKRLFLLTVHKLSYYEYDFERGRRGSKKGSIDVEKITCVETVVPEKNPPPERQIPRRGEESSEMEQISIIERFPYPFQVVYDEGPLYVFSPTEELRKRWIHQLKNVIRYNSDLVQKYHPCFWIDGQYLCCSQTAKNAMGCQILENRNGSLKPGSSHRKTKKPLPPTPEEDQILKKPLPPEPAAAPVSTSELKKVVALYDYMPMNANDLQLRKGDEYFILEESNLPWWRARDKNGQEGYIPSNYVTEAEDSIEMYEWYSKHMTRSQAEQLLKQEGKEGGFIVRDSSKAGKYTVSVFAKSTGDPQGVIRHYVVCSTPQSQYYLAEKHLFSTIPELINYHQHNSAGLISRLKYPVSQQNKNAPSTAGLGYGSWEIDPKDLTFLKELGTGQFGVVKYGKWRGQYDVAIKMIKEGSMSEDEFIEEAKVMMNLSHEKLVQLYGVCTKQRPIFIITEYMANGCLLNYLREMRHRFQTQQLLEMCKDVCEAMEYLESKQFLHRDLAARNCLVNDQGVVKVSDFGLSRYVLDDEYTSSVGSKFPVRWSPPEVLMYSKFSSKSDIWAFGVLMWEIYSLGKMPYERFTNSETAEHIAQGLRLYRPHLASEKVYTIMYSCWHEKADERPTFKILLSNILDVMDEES
# T1 sequence (P00533 25-1210): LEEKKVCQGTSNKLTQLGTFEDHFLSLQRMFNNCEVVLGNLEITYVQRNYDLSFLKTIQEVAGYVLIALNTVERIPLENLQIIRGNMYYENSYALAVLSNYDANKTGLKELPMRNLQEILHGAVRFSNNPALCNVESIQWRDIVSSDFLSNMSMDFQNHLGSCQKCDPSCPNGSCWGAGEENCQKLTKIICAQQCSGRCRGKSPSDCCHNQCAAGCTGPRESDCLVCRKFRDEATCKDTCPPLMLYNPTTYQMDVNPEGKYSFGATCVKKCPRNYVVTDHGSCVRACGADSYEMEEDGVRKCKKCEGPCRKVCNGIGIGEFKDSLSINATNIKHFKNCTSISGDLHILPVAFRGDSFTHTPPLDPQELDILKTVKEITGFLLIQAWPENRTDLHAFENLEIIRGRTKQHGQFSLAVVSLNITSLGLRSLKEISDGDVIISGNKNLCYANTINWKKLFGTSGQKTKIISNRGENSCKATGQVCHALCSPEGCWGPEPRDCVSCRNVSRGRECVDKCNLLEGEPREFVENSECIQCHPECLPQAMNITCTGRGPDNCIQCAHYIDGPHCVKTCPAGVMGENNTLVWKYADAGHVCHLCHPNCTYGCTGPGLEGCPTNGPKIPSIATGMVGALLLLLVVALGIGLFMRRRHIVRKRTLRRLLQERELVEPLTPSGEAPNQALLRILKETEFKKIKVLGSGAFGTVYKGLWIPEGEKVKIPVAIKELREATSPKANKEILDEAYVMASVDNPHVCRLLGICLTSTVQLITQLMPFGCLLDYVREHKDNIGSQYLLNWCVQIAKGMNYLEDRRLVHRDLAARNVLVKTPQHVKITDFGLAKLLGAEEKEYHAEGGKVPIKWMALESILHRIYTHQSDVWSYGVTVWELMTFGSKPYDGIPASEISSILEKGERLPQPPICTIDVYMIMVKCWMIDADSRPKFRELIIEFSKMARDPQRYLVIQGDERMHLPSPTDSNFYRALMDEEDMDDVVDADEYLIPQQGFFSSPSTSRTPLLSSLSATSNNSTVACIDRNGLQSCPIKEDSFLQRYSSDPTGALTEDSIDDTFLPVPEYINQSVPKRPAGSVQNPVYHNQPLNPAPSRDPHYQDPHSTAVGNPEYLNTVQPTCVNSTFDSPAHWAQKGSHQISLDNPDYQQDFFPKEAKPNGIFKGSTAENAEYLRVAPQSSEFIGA
SMILES,IC50 (EGFR (ErbB1)) [µM],IC50 (EGFR (ErbB1) T790M L858R) [µM],IC50 (BTK) [µM],inhibition at 0.1 µM (BTK) [%],inhibition at 0.1 µM (EGFR (ErbB1)) [%],inhibition at 0.1 µM (EGFR (ErbB1) T790M L858R) [%]
"C=CC(=O)N1CCCC(n2cnc3cnc(Nc4ccc(N5CCN(C)CC5)c(F)c4)nc32)C1 (stereo not drawn) [Example A009, 1-(3-(2-((3-fluoro-4-(4-methylpiperazin-1-yl)phenyl)amino)-9H-purin-9-yl)piperidin-1 yl)prop-2-en-1-one]",> 0.1,> 0.1,< 0.1,> 50,–,–
"C=CC(=O)N1CCC(n2cnc3cnc(Nc4ccc(N5CCN(C)CC5)c(F)c4)nc32)C1 (stereo not drawn) [Example A004, 1-(3-(2-((3-Fluoro-4-(4-methylpiperazin-1-yl)phenyl)amino)-9H-purin-9-yl)pyrrolidin-1-yl)prop-2-en-1-one]",–,–,–,> 50,–,–
"C=CC(=O)N1CCC(n2cnc3cnc(Nc4ccc(N5CCN(CCO)CC5)c(F)c4)nc32)C1 (stereo not drawn) [Example A007, 1-(3-(2-((3-fluoro-4-(4-(2-hydroxyethyl)piperazin-1-yl)phenyl)amino)-9H-purin-9-yl)pyrrolidin-1-yl)prop-2-en-1-one]",–,–,–,> 50,–,–
"C=CC(=O)N1CCC(n2cnc3cnc(Nc4ccc(N5CCN(C)CC5)c(F)c4F)nc32)C1 (stereo not drawn) [Example A011, 1-(3-(2-((2,3-difluoro-4-(4-methylpiperazin-1-yl)phenyl)amino)-9H-purin-9-yl)pyrrolidin-1-yl)prop-2-en-1-one]",–,–,–,< 50,< 50,< 50
"C=CC(=O)N1CCC(n2cnc3cnc(Nc4ccc(N5CCN(CCO)CC5)cc4)nc32)C1 (stereo not drawn) [Example A006, 1-(3-(2-((4-(4-(2-hydroxyethyl)piperazin-1-yl)phenyl)amino)-9H-purin-9-yl)pyrrolidin-1-yl)prop-2-en-1-one]",–,–,–,> 50,–,–
"C=CC(=O)N1CCC(n2cnc3cnc(Nc4ccc(N5CCN(C)CC5)cc4)nc32)C1 (stereo not drawn) [Example A005, 1-(3-(2-((4-(4-methylpiperazin-1-yl)phenyl)amino)-9H-purin-9-yl)pyrrolidin-1-yl)prop-2-en-1-one]",–,–,–,> 50,–,–
C=CC(=O)N1CCCC(n2cnc3cnc(Nc4ccc(N5CCN(CCO)CC5)c(F)c4)nc32)C1 (stereo not drawn) [Example A012],–,–,–,> 50,< 50,< 50
"C=CC(=O)N1CCC(n2cnc3cnc(Nc4ccc(N5CCN(CCO)CC5)cc4F)nc32)C1 (stereo not drawn) [Example A008, 1-(3-(2-((2-fluoro-4-(4-(2-hydroxyethyl)piperazin-1-yl)phenyl)amino)-9H-purin-9-yl)pyrrolidin-1-yl)prop-2-en-1-one]",–,–,–,< 50,–,–
"C=CC(=O)N1CCCC(n2cnc3cnc(Nc4ccc(N5CCN(C)CC5)cc4F)nc32)C1 (stereo not drawn) [Example A018, 1-(3-(2-((2-fluoro-4-(4-methylpiperazin-1-yl)phenyl)amino)-9H-purin-9-yl)piperidin-1-yl)prop-2-en-1-one]",–,–,–,< 50,< 50,< 50
"C=CC(=O)N1CCCC(n2cnc3cnc(Nc4ccc(N5CCN(CCO)CC5)c(F)c4F)nc32)C1 (stereo not drawn) [Example A024, 1-(3-(2-((2,3-difluoro-4-(4-(2-hydroxyethyl)piperazin-1-yl)phenyl)amino)-9H-purin-9-yl)piperidin-1-yl)prop-2-en-1-one]",–,–,–,< 50,< 50,< 50
"C=CC(=O)N1CCCC(n2cnc3cnc(Nc4ccc(N5CCN(CCO)CC5)cc4F)nc32)C1 (stereo not drawn) [Example A016, 1-(3-(2-((2-fluoro-4-(4-(2-hydroxyethyl)piperazin-1-yl)phenyl)amino)-9H-purin-9-yl)piperidin-1-yl)prop-2-en-1-one]",–,–,–,< 50,< 50,< 50
"C=CC(=O)N1CCC(n2cnc3cnc(Nc4ccc(N5CCN(C)CC5)cc4F)nc32)C1 (stereo not drawn) [Example A017, 1-(3-(2-((2-fluoro-4-(4-methylpiperazin-1-yl)phenyl)amino)-9H-purin-9-yl)pyrrolidin-1-yl)prop-2-en-1-one]",–,–,–,< 50,< 50,< 50
"C=CC(=O)N1CCCC(n2cnc3cnc(Nc4ccc(N5CCN(CCO)CC5)cc4)nc32)C1 (stereo not drawn) [Example A013, 1-(3-(2-((4-(4-(2-hydroxyethyl)piperazin-1-yl)phenyl)amino)-9H-purin-9-yl)piperidin-1-yl)prop-2-en-1-one]",–,–,–,> 50,< 50,< 50
"C=CC(=O)N1CCCC(n2cnc3cnc(Nc4ccc(N5CCN(C)CC5)c(F)c4F)nc32)C1 (stereo not drawn) [Example A023, 1-(3-(2-((2,3-difluoro-4-(4-methylpiperazin-1-yl)phenyl)amino)-9H-purin-9-yl)piperidin-1-yl)prop-2-en-1-one]",–,–,–,< 50,< 50,< 50

# Now from value to compound:
IC50 (EGFR (ErbB1)) [µM],IC50 (EGFR (ErbB1) T790M L858R) [µM],IC50 (BTK) [µM],inhibition at 0.1 µM (BTK) [%],inhibition at 0.1 µM (EGFR (ErbB1)) [%],inhibition at 0.1 µM (EGFR (ErbB1) T790M L858R) [%],SMILES
–,–,–,> 50,< 50,> 50,C=CC(=O)Nc1cccc(-n2cnc3cnc(Nc4ccc(N5CCN(CCO)CC5)c(F)c4)nc32)c1 [Example A020]
–,–,–,> 50,< 50,< 50,"C=CC(=O)Nc1cccc(-n2cnc3cnc(Nc4ccc(N5CCN(CCO)CC5)cc4)nc32)c1 [Example A015, N-(3-(2-((4-(4-(2-hydroxyethyl)piperazin-1-yl)phenyl)amino)-9H-purin-9-yl)phenyl)acrylamide]"
–,–,–,< 50,< 50,< 50,"C=CC(=O)Nc1cccc(-n2cnc3cnc(Nc4ccc(N5CCN(CCO)CC5)c(F)c4F)nc32)c1 [Example A014, N-(3-(2-((2,3-difluoro-4-(4-(2-hydroxyethyl)piperazin-1-yl)phenyl)amino)-9H-purin-9-yl)phenyl)acrylamide]"
> 0.1,> 0.1,< 0.1,> 50,–,–,"C=CC(=O)Nc1cccc(-n2cnc3cnc(Nc4ccc(N5CCN(C)CC5)c(F)c4)nc32)c1 [Example A010, N-(3-(2-((3-fluoro-4-(4-methylpiperazin-1-yl)phenyl)amino)-9H-purin-9-yl)phenyl)acrylamide]"
> 0.1,> 0.1,< 0.1,> 50,–,–,"C=CC(=O)Nc1cccc(-n2cnc3cnc(Nc4ccc(N5CCN(C)CC5)cc4)nc32)c1 [Example A002, N-(3-(2-((4-(4-methylpiperazin-1-yl)phenyl)amino)-9H-purin-9-yl)phenyl)acrylamide]"
–,–,–,< 50,< 50,< 50,"C=CC(=O)Nc1cccc(-n2cnc3cnc(Nc4ccc(N5CCN(C)CC5)c(F)c4F)nc32)c1 [Example A019, N-(3-(2-((2,3-difluoro-4-(4-methylpiperazin-1-yl)phenyl)amino)-9H-purin-9-yl)phenyl)acrylamide]"
–,–,–,< 50,< 50,< 50,"C=CC(=O)Nc1cccc(-n2cnc3cnc(Nc4ccc(N5CCN(C)CC5)cc4F)nc32)c1 [Example A021, N-(3-(2-((2-fluoro-4-(4-methylpiperazin-1-yl)phenyl)amino)-9H-purin-9-yl)phenyl)acrylamide]"
–,–,–,< 50,–,–,"C=CC(=O)Nc1cccc(-n2cnc3cnc(Nc4ccc(N5CCN(CCO)CC5)cc4F)nc32)c1 [Example A003, N-(3-(2-((2-fluoro-4-(4-(2-hydroxyethyl)piperazin-1-yl)phenyl)amino)-9H-purin-9-yl)phenyl)acrylamide]"
